Several values for one entry are separate records, joined by “and”; a condition that tells them apart may be missing. Equal values may be shown once.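 Values below derive from 48-hour exposures of cells grown in 96-well plates, with endpoints linearly interpolated between the two concentrations bracketing the appropriate inhibition level. Abbreviation: GI50, concentration required for 50% inhibition of growth. The concentration for full growth arrest is given as TGI.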
What was measured:
Assay in all cases: growth of human tumour cells (NCI), 48 h
SNB-75 CNS = system: SNB-75 CNS
NCI-H23 lung = system: NCI-H23 lung
OVCAR-4 ovarian = system: OVCAR-4 ovarian
T-47D breast = system: T-47D breast
KM12 colon = system: KM12 colon
K-562 leukemia = system: K-562 leukemia
HCT-15 colon = system: HCT-15 colon
UO-31 renal = system: UO-31 renal
SW-620 colon = system: SW-620 colon
786-0 renal = system: 786-0 renal

Row | SMILES | GI50 (SNB-75 CNS) | TGI (SNB-75 CNS) | GI50 (NCI-H23 lung) | TGI (NCI-H23 lung) | GI50 (OVCAR-4 ovarian) | TGI (OVCAR-4 ovarian) | GI50 (T-47D breast) | TGI (T-47D breast) | GI50 (KM12 colon) [µM] | TGI (KM12 colon) | GI50 (K-562 leukemia) | TGI (K-562 leukemia) | GI50 (HCT-15 colon) | TGI (HCT-15 colon) | GI50 (UO-31 renal) | TGI (UO-31 renal) | GI50 (SW-620 colon) | TGI (SW-620 colon) | GI50 (786-0 renal) | TGI (786-0 renal)
1 | CCCCCCCCCCCC1=NC(C)(C)CN1CC(C)O (configuration not stated) | 9.26 µM | 21.3 µM | 4.36 µM | 16 µM | 10.6 µM | 22.4 µM | 3.27 µM | 11.2 µM | 2.25 | 4.84 µM | 1.62 µM | 3.33 µM | 1.95 µM | 4.75 µM | 4.75 µM | 18.7 µM | 1.85 µM | 3.91 µM | 11.8 µM | 25.9 µM
2 | Oc1ccc2ccccc2c1N=Nc1ccc(Cl)cc1 | – | > 100 µM | – | > 100 µM | – | > 100 µM | – | > 100 µM | – | > 100 µM | – | > 100 µM | – | > 100 µM | – | > 100 µM | – | > 100 µM | – | > 100 µM
3 | COc1ccc(/C=N\NC(=O)c2ccc3nc(-c4ccc(Cl)cc4)[nH]c3c2)cc1 | 1.53 µM | 4.58 µM | 2.74 µM | 11.2 µM | 1.79 µM | 3.36 µM | 1.94 µM | 4.83 µM | 3.03 | 9.58 µM | 2.69 µM | 11.2 µM | 3.24 µM | 12.8 µM | 1.86 µM | 6.38 µM | 2.41 µM | 5.58 µM | 1.93 µM | 3.67 µM
4 | O=C(Oc1ccccc1Cl)c1ccccc1Nc1cccc(C(F)(F)F)c1 | 43.1 µM | > 100 µM | 19.8 µM | 73.7 µM | 62.7 µM | > 100 µM | 43.4 µM | > 100 µM | 19.6 | 44.6 µM | 2.67 µM | 8.43 µM | 29.4 µM | > 100 µM | 30.9 µM | > 100 µM | 8.07 µM | 54.4 µM | 27.2 µM | 96.6 µM
5 | O=C1CC(c2ccsc2)c2snc(-c3ccc(Cl)cc3)c2N1 (configuration not stated) | 1.71 µM | 9.71 µM | 1.76 µM | > 100 µM | 5.6 µM | > 100 µM | 0.537 µM | > 100 µM | 0.385 | > 100 µM | 0.356 µM | > 100 µM | 0.489 µM | > 100 µM | 3.86 µM | > 100 µM | 0.429 µM | > 100 µM | 7.65 µM | > 100 µM
6 | COc1ccc(-c2nc(-c3ccccn3)c(-c3ccccn3)n2CC(C)C)cc1OC1CCCC1 | 24 µM | 123 µM | 28.5 µM | > 165 µM | 32.3 µM | 126 µM | 9.73 µM | > 165 µM | 11.1 | > 165 µM | 6.37 µM | > 165 µM | 6.72 µM | > 165 µM | 7.43 µM | 142 µM | 42 µM | > 165 µM | 48.7 µM | > 165 µM
7 | CC#CC#C/C=C1\C=CC2(OC=CC2OC(C)=O)O1 (configuration not stated) | – | > 100 µM and 95.9 µM | – | 42.9 µM and 16.5 µM | 29.1 µM | > 100 µM | – | 73.9 µM | – | 63.7 µM and 54.8 µM | – | > 100 µM and 54.8 µM | 16.4 µM and 4.78 µM | 30 µM and 27.8 µM | – | 30.8 µM and 36.2 µM | – | 65.9 µM and 39.7 µM | 44.3 µM and 18.1 µM | > 100 µM and 33.6 µM
8 | COC1C(CO)OC(n2c3c(Cl)cccc3c3c4c(c5c6cccc(Cl)c6[nH]c5c32)C(=O)NC4=O)C(O)C1O (configuration not stated) | – | 5.87 µM | – | 2.72 µM | – | 18.3 µM | – | > 21.1 µM | – | > 58.6 µM | – | > 100 µM | – | > 100 µM | – | 2.6 µM | – | > 100 µM | – | 2.32 µM
9 | COc1cc2cnc(-c3ccccc3)cc2cc1OC | – | > 100 µM | – | 56.7 µM | – | 82 µM | – | > 100 µM | – | 61.2 µM | – | 78.3 µM | – | 46.5 µM | – | > 100 µM | – | > 100 µM | – | > 100 µM
10 | COc1ccc(C2=N[C@@H](c3ccc(Cl)cc3)[C@@H](c3ccc(Cl)cc3)N2C(=O)N2CCNC(=O)C2)c(OC(C)C)c1 | 13.4 µM and 11.8 µM and 11.9 µM | 26.5 µM and 25.1 µM and 26.2 µM | 16 µM and 15.8 µM and 16.4 µM | 32.1 µM and 33.2 µM and 34.8 µM | 12.1 µM and 12.5 µM and 13.7 µM | 24.9 µM and 26 µM and 31.5 µM | 14.6 µM and 10.5 µM and 15.2 µM | 30.4 µM and 27.4 µM and 40.6 µM | 15.9 | 32 µM and 30 µM and 30.6 µM | 16.5 µM and 17.1 µM | 61.6 µM and 53.1 µM and 74.1 µM | 14.3 µM and 14.5 µM and 14.9 µM | 32.3 µM and 28.7 µM and 30.2 µM | 5.92 µM and 3.77 µM and 2.63 µM | 20.7 µM and 17.5 µM and 15.9 µM | 17.1 µM and 18.2 µM and 16.7 µM | 33.6 µM and 37.4 µM and 34 µM | 14.9 µM and 16.6 µM and 17.3 µM | 29 µM and 32.6 µM and 34 µM
11 | COc1ccc(C(=O)/C=C/c2cc(-c3ccc4c(c3)OCO4)n[nH]2)cc1OC | 1.98 µM | 7.57 µM | 4.12 µM | 19.6 µM | 2.11 µM | 40.3 µM | 3.23 µM | 26.1 µM | 2.86 | 9.48 µM | 2.47 µM | 16.7 µM | 2.81 µM | > 100 µM | 2.32 µM | 10.1 µM | 2.05 µM | 4.81 µM | 3.12 µM | 11.4 µM
12 | O=C1/C(=C/c2ccc(Cl)cc2)CN(C(=O)CCN2CCC(=NO)CC2)C/C1=C\c1ccc(Cl)cc1 | 1.31 µM | 2.61 µM | 1.13 µM | 2.63 µM | 0.834 µM | 2.39 µM | 1.08 µM | 4.26 µM | 0.388 | 0.935 µM | 0.23 µM | – | 0.383 µM | 1.38 µM | 1.01 µM | 2.3 µM | 0.179 µM | 0.467 µM | 0.786 µM | 2.12 µM
13 | O=C(c1ccco1)c1nc2cc(C(F)(F)F)ccc2[n+]([O-])c1C(F)(F)F | 23 µM | 90.9 µM | 35.6 µM | > 100 µM | 17.9 µM | 55.2 µM | 19.2 µM | > 100 µM | 17.4 | > 100 µM | 48.9 µM | > 100 µM | 56.5 µM | > 100 µM | 58.8 µM | > 100 µM | 37.5 µM | > 100 µM | 83.6 µM | > 100 µM
14 | Oc1ccc(Oc2cnc3cc(Cl)ccc3n2)cc1 | 26 µM | > 100 µM | 52.8 µM | > 100 µM | 28.2 µM | > 100 µM | 32.8 µM | > 100 µM | 13.4 | > 100 µM | 37.7 µM | > 100 µM | 33.7 µM | > 100 µM | 3.88 µM | 94 µM | 38.2 µM | > 100 µM | 31 µM | > 100 µM
15 | C[C@@H](Oc1cc(-n2cnc3ccc(OCC4CCN(C)CC4)cc32)sc1C(N)=O)c1ccccc1Cl | 0.0898 µM | 1.81 µM | 0.103 µM | 3.64 µM | 0.477 µM | 4.81 µM | 2.86 µM | 6.3 µM | 0.0507 | 2.73 µM | 0.0437 µM | 3.34 µM | 0.0998 µM | 3.39 µM | 0.616 µM | 3.96 µM | 0.0267 µM | 3.27 µM | 0.315 µM | 3.92 µM
16 | CC(C)=CC(=O)N[C@@H]1CC2CCC3C(CC[C@@]4(C)C3CC[C@@H]4C(C)N(C)C)[C@@]2(C)C[C@@H]1O (some centres not stated) | 5.97 µM | 23.3 µM | 5.06 µM | 39.1 µM | 4.32 µM | > 62 µM | 1.94 µM | 31.2 µM | 4.41 | 30.1 µM | 0.849 µM | 8.49 µM | 1.39 µM | 5.01 µM | 1.62 µM | 4.43 µM | 2.86 µM | 10.5 µM | 4.31 µM | 14.2 µM
17 | O=C1/C(=C/c2ccc(Cl)cc2)CCC1CN1CCOCC1 (configuration not stated) | – | 37.9 µM | – | 20.9 µM | – | 34.1 µM | – | 6.25 µM | – | 10.4 µM | – | 8.06 µM | – | 11.6 µM | – | 22.4 µM | – | 6.71 µM | – | 6.2 µM
18 | CN(C)CC1CCCCCC(Br)C1=O (configuration not stated) | – | > 100 µM | – | 29.6 µM | – | 33.6 µM | – | > 54.6 µM | – | 41 µM | – | > 100 µM | – | 25.4 µM | – | 26.6 µM | – | 12.7 µM | – | 8.62 µM
19 | O=C(c1nn(-c2ccc(Cl)cc2)cc1O)n1nc(C(F)(F)F)cc1-c1ccccc1 | 0.816 µM | > 100 µM | 5.49 µM | > 100 µM | 2.43 µM | > 100 µM | 4.01 µM | > 100 µM | 5.09 | > 100 µM | 1.72 µM | > 100 µM | 1.13 µM | > 100 µM | 2.9 µM | > 100 µM | 4.51 µM | > 100 µM | 6.39 µM | > 60.8 µM
